Source: ChEMBL document CHEMBL1145498, “A systematic interaction map of validated kinase inhibitors with Ser/Thr kinases” (Proc Natl Acad Sci U S A, 2007)

What was measured:
[1] = target: Serine/threonine-protein kinase pim-2 (Homo sapiens, UniProt Q9P1W9)
[2] = target: Serine/threonine-protein kinase OSR1 (Homo sapiens) (UniProt O95747)
[3] = target: T1, Lymphokine-activated killer T-cell-originated protein kinase (Homo sapiens) (UniProt Q96KB5)
T1 sequence (whole entry): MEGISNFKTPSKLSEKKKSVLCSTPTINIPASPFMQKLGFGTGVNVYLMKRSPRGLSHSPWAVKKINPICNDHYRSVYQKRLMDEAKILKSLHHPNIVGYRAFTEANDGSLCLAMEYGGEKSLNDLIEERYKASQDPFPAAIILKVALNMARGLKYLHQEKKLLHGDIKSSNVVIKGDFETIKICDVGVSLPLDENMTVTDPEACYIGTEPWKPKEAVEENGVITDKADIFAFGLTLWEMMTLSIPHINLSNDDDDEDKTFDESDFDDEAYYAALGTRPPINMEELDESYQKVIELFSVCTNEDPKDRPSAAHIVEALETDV

[4] = target: STE20-like serine/threonine-protein kinase (Homo sapiens) (UniProt Q9H2G2)
[5] = target: Serine/threonine-protein kinase Chk2 (Homo sapiens, UniProt O96017)
[6] = target: Dual specificity protein kinase CLK2 (Homo sapiens) (UniProt P49760)
[7] = target: Casein kinase I isoform gamma-1 (Homo sapiens) (UniProt Q9HCP0)
[8] = target: Calcium/calmodulin-dependent protein kinase kinase 2 (Homo sapiens, UniProt Q96RR4)
[9] = target: cAMP-dependent protein kinase catalytic subunit alpha (Homo sapiens) (UniProt P17612)
[10] = target: Mitogen-activated protein kinase 3 (Homo sapiens, UniProt P27361)
[11] = target: Dual specificity protein kinase CLK3 (Homo sapiens) (UniProt P49761)
[12] = target: Cyclin-dependent kinase 6 (Homo sapiens) (UniProt Q00534)
[13] = target: Ribosomal protein S6 kinase alpha-3 (Homo sapiens) (UniProt P51812)
[14] = target: T2, Serine/threonine-protein kinase PLK4 (Homo sapiens) (UniProt O00444)
T2 sequence (whole entry): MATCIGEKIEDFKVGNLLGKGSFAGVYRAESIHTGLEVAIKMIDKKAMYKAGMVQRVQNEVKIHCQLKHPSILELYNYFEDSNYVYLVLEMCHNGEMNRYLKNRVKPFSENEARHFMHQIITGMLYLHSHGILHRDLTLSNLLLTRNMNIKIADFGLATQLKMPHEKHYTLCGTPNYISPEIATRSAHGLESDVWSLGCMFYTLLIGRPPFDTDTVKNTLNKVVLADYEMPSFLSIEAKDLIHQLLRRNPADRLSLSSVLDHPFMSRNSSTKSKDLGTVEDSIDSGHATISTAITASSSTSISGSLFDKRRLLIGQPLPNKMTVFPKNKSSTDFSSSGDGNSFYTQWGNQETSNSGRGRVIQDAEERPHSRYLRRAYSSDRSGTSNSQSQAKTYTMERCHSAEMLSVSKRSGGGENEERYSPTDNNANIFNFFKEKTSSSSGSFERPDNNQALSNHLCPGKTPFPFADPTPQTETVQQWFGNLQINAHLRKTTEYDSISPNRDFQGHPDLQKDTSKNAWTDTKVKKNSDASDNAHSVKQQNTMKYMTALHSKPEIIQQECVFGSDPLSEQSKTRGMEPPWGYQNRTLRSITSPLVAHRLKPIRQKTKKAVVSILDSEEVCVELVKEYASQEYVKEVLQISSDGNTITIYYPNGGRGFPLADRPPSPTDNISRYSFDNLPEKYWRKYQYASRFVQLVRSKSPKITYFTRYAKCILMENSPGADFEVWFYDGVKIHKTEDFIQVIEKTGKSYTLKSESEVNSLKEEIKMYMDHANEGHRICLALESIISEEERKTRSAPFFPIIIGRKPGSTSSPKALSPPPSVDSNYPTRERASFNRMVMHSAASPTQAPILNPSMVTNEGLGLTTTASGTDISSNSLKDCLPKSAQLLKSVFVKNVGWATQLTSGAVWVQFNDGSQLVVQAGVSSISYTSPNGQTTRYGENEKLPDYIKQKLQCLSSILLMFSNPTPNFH

[15] = target: T3, Serine/threonine-protein kinase VRK3 (Homo sapiens) (UniProt Q8IV63)
T3 sequence (whole entry): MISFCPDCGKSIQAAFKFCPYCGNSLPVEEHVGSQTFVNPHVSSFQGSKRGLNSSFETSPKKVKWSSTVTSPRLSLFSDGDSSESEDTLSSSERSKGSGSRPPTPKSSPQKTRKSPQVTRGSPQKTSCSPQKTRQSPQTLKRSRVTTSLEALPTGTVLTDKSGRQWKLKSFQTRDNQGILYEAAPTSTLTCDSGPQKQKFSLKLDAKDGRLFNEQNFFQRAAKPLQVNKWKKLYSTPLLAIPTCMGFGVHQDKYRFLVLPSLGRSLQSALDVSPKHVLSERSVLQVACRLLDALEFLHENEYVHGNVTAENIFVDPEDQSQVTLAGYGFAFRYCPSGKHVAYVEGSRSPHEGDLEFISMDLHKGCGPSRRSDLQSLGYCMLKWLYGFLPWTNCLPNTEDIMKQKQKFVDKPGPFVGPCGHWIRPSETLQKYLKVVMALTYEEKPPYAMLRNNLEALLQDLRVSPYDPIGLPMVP

[16] = target: Death-associated protein kinase 3 (Homo sapiens) (UniProt O43293)
[17] = target: Calcium/calmodulin-dependent protein kinase type 1G (Homo sapiens) (UniProt Q96NX5)
[18] = target: Serine/threonine-protein kinase Nek6 (Homo sapiens) (UniProt Q9HC98)
[19] = target: Mitogen-activated protein kinase 11 (Homo sapiens, UniProt Q15759)
[20] = target: Tyrosine-protein kinase JAK1 (Homo sapiens) (UniProt P23458)
[21] = target: Serine/threonine-protein kinase pim-3 (Homo sapiens) (UniProt Q86V86)

Sequence of Mitogen-activated protein kinase 11 (Q15759 whole entry): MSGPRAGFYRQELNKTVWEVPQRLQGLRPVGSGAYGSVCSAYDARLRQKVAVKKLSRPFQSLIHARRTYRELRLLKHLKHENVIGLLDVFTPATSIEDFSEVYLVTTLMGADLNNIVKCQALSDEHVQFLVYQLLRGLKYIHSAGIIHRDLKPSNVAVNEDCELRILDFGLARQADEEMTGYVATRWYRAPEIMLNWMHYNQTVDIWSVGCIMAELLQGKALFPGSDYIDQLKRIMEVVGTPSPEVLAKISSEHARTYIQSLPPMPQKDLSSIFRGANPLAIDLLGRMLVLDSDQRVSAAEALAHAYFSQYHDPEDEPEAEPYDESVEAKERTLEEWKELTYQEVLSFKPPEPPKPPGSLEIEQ
Sequence of Death-associated protein kinase 3 (Homo sapiens) (O43293 whole entry, looked up): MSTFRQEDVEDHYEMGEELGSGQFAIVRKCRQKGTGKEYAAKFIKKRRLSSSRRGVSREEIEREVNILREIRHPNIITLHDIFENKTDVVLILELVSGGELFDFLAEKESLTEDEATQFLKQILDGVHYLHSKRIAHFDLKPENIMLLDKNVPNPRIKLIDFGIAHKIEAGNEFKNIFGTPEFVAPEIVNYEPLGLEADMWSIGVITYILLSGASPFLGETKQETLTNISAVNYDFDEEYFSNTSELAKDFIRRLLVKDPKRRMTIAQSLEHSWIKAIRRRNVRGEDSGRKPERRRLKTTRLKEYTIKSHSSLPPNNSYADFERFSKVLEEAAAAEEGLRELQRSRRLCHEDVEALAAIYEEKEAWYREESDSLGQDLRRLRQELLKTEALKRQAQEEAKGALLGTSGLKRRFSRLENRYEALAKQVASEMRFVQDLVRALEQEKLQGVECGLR
Sequence of Calcium/calmodulin-dependent protein kinase kinase 2 (Q96RR4 2-588 limits assumed): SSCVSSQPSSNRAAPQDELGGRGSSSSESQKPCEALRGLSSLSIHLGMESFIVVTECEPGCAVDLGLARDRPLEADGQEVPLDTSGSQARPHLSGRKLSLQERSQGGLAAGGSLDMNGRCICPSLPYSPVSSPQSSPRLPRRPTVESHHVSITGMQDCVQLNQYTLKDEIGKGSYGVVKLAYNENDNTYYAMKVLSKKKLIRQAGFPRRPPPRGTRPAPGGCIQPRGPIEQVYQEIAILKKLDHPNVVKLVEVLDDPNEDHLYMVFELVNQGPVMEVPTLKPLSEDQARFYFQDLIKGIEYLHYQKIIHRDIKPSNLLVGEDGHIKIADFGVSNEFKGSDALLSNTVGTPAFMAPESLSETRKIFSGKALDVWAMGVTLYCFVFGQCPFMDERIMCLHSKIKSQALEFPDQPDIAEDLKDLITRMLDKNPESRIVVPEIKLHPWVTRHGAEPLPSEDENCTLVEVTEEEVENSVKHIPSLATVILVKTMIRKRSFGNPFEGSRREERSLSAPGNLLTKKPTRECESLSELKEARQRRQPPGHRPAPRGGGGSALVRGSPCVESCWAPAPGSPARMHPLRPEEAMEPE
Sequence of Serine/threonine-protein kinase Chk2 (O96017 whole entry): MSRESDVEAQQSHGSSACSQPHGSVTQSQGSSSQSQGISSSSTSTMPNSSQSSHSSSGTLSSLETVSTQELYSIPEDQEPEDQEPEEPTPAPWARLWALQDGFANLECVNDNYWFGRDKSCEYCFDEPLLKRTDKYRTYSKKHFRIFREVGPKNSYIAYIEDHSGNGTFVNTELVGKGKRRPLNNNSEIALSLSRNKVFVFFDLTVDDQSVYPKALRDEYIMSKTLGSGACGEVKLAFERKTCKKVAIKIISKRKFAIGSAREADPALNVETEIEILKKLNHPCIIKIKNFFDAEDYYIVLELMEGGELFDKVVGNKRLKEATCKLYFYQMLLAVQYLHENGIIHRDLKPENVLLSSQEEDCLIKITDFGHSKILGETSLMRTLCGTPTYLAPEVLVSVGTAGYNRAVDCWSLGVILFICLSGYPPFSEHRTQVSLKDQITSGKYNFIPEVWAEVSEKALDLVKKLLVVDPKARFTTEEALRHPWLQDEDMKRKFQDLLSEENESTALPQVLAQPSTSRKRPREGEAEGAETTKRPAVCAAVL
Sequence of STE20-like serine/threonine-protein kinase (Homo sapiens) (Q9H2G2 whole entry, looked up): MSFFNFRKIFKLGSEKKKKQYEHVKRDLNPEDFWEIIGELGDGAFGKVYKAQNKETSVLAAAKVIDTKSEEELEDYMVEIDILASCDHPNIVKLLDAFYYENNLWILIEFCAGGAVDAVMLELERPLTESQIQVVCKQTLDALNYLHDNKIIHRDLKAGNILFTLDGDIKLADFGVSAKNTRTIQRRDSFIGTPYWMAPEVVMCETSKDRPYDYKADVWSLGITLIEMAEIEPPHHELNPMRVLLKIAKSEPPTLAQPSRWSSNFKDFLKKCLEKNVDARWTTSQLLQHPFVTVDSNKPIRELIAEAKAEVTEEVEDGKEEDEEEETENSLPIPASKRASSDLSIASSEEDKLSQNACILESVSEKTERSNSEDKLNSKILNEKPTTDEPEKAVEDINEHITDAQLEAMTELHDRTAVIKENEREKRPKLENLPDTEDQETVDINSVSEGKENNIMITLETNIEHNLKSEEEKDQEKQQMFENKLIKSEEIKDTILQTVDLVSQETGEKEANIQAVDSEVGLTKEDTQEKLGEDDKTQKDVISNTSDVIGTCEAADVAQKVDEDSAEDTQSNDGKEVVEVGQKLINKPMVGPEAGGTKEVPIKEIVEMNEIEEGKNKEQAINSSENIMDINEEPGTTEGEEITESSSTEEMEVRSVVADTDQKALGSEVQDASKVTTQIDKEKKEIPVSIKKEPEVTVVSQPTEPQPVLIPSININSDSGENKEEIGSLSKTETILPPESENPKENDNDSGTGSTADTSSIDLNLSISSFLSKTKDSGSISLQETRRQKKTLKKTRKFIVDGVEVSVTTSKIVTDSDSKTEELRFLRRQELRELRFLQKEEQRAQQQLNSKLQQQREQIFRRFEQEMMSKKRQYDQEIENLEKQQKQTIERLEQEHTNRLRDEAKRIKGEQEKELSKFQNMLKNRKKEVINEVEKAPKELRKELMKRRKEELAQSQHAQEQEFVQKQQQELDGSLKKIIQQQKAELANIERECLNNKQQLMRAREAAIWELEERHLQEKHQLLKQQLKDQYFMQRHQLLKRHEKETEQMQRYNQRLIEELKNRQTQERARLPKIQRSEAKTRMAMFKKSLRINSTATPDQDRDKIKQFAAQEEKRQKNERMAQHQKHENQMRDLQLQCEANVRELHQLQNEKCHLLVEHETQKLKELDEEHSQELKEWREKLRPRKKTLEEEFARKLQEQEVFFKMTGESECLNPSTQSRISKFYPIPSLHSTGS
Sequence of Cyclin-dependent kinase 6 (Homo sapiens) (Q00534 whole entry): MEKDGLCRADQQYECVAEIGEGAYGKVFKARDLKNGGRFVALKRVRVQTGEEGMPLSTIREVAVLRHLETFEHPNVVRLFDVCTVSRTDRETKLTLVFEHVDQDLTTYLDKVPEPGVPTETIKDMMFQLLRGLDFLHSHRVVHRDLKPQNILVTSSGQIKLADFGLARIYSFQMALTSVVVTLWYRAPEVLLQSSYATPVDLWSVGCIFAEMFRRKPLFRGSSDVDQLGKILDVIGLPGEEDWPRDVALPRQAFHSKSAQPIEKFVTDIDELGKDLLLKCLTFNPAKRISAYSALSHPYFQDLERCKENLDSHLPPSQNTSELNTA
Sequence of Serine/threonine-protein kinase OSR1 (Homo sapiens) (O95747 2-527 limits assumed): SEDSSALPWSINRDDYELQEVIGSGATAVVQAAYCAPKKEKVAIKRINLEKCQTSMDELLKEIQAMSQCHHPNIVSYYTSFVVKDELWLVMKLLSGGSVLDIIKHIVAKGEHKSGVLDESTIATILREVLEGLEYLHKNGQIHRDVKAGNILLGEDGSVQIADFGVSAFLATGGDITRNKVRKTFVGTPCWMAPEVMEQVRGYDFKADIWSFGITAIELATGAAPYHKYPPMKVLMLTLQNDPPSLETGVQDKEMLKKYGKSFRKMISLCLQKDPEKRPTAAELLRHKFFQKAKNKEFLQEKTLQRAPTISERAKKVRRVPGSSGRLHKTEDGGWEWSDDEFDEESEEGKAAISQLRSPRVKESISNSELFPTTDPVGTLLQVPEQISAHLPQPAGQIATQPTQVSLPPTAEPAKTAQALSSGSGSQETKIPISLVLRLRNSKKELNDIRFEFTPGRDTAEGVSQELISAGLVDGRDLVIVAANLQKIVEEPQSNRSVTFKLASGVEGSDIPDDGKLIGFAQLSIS
Sequence of Mitogen-activated protein kinase 3 (P27361 whole entry): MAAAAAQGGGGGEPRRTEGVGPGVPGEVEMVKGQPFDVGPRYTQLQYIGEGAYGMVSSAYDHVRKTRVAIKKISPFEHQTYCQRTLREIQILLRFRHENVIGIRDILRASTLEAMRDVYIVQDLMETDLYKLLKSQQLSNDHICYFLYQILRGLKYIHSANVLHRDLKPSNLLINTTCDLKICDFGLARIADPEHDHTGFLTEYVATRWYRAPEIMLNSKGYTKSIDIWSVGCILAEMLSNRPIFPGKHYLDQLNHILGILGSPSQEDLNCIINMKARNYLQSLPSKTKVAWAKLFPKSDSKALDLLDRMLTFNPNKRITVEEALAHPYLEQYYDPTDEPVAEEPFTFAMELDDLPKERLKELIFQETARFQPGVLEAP

| SMILES | ΔTm [1] | ΔTm [2] | ΔTm [4] | ΔTm [5] | ΔTm [6] | ΔTm [7] | ΔTm [8] | ΔTm [9] | ΔTm [10] | ΔTm [11] | ΔTm [12] | ΔTm [13] | ΔTm [14] | ΔTm [15] | ΔTm [17] | ΔTm [18] | ΔTm [19] | ΔTm [20] | ΔTm [3] | ΔTm [16] | other results |
| --- | --- | --- | --- | --- | --- | --- | --- | --- | --- | --- | --- | --- | --- | --- | --- | --- | --- | --- | --- | --- | --- |
| C[S+]([O-])c1ccc(CSc2nc(-c3ccc(F)cc3)c(-c3ccncc3)[nH]2)cc1 (stereo not given) | 0.4 °C | 0.1 °C | 1.1 °C | -0.4 °C | 0.2 °C | 0.2 °C | 0.9 °C | -0.2 °C | 0.3 °C | -0.1 °C | 0.2 °C | 0.1 °C | 0.3 °C | -0.8 °C | 0 °C | -0.2 °C | 1.5 °C | 0.2 °C | 0.5 °C | 0.4 °C | ΔTm [21]: -0.4 °C |
| C=CNC#N | 0.3 °C | 0 °C | 0.1 °C | 0.1 °C | 0.6 °C | 0.7 °C | 0.9 °C | 1.6 °C | -0.6 °C | 0.2 °C | 0.1 °C | 1 °C | 0.1 °C | 0.9 °C | 0.4 °C | -0.2 °C | -0.1 °C | -0.9 °C | -1.1 °C | -0.2 °C | ΔTm [21]: 1 °C |

Further lines, with some results ahead:

| ΔTm [1] | ΔTm [2] | ΔTm [4] | ΔTm [5] | ΔTm [6] | ΔTm [7] | ΔTm [8] | ΔTm [9] | ΔTm [10] | ΔTm [11] | ΔTm [12] | ΔTm [13] | ΔTm [14] | ΔTm [15] | ΔTm [17] | ΔTm [18] | ΔTm [19] | ΔTm [20] | SMILES | ΔTm [3] | ΔTm [16] | other results |
| --- | --- | --- | --- | --- | --- | --- | --- | --- | --- | --- | --- | --- | --- | --- | --- | --- | --- | --- | --- | --- | --- |
| 3.3 °C | 1 °C | 1 °C | 0.4 °C | 2.8 °C | -0.2 °C | 0.6 °C | 1.6 °C | 0 °C | 3 °C | 0 °C | 2.9 °C | 2.8 °C | 0 °C | 0.4 °C | 0.1 °C | -0.7 °C | 4.8 °C | Cc1nc2sccn2c(=O)c1CCN1CCC(=C(c2ccccc2)c2ccc(F)cc2)CC1 | -0.5 °C | 4.2 °C | ΔTm [21]: 6.1 °C |
| 1.1 °C | -0.1 °C | -0.7 °C | 0.8 °C | 0.5 °C | 1.4 °C | 0.5 °C | 1.2 °C | 0.3 °C | 0.3 °C | 0.4 °C | 1.7 °C | 1.1 °C | 0.7 °C | 0.2 °C | 0.4 °C | 0.3 °C | 0.4 °C | O=C(O)c1cc(N(Cc2ccccc2O)Cc2cc(O)ccc2O)ccc1O [LAVENDUSTIN A] | 0 °C | 0.8 °C | ΔTm [21]: 0.4 °C |
| 0.3 °C | 1.1 °C | 0.8 °C | 0.5 °C | 0.9 °C | -0.1 °C | 1 °C | 0.7 °C | 0.4 °C | 0.4 °C | 0.1 °C | 0.8 °C | 1.3 °C | -1 °C | -0.1 °C | 0 °C | 0.1 °C | 0.9 °C | CN(C)c1ncnc2nc[nH]c12 [DIMETHYLADENINE] | 0.5 °C | 0.9 °C | ΔTm [21]: 0.9 °C |
